Test results: the kinase profiling compilation of Christmann-Franck et al. (2016)

Key:
Experiment in all cases: KINOMEscan competition binding
Conditions in all cases: compound 10.0 µM
PRKCE (human) = PRKCE (human) (UniProt Q02156)
TAOK3 (human) = TAOK3 (human) (UniProt Q9H2K8)
MARK2 (human) = MARK2 (human) (UniProt Q7KZI7)
PIK3CG (human) = PIK3CG (human) (UniProt P48736)
RIOK2 (human) = RIOK2 (human) (UniProt Q9BVS4)
PIP5K1A (human) = PIP5K1A (human) (UniProt Q99755)
KIT (human) = KIT (human) (UniProt P10721)
CaMK1 (human) = CaMK1 (human) (UniProt Q14012)
MYLK (human) = MYLK (human) (UniProt Q15746)
MAP3K10 (human) = MAP3K10 (human) (UniProt Q02779)
RAF1 (human) = RAF1 (human) (UniProt P04049)
HCK (human) = HCK (human) (UniProt P08631)
RIPK4 (human) = RIPK4 (human) (UniProt P57078)
[1] = system: FLT3 (human), P36888 [D835H]
SRMS (human) = SRMS (human) (UniProt Q9H3Y6)
[2] = system: PIK3CA (human), P42336 [Q546K]
EPHA3 (human) = EPHA3 (human) (UniProt P29320)
EPHA4 (human) = EPHA4 (human) (UniProt P54764)
RPS6KA6 KD2 (human) = RPS6KA6 KD2 (human) (UniProt Q9UK32)
RIPK2 (human) = RIPK2 (human) (UniProt O43353)
RIPK1 (human) = RIPK1 (human) (UniProt Q13546)
LATS2 (human) = LATS2 (human) (UniProt Q9NRM7)
FGFR1 (human) = FGFR1 (human) (UniProt P11362)
ABL2 (human) = ABL2 (human) (UniProt P42684)
CLK1 (human) = CLK1 (human) (UniProt P49759)
PAK1 (human) = PAK1 (human) (UniProt Q13153)
PLK1 (human) = PLK1 (human) (UniProt P53350)
DDR2 (human) = DDR2 (human) (UniProt Q16832)
IRAK1 (human) = IRAK1 (human) (UniProt P51617)
STK11 (human) = STK11 (human) (UniProt Q15831)
NEK7 (human) = NEK7 (human) (UniProt Q8TDX7)
[3] = system: KIT (human), P10721 [V559D]
MKNK2 (human) = MKNK2 (human) (UniProt Q9HBH9)
RPS6KA1 KD1 (human) = RPS6KA1 KD1 (human) (UniProt Q15418)
RIOK3 (human) = RIOK3 (human) (UniProt O14730)
STK38 (human) = STK38 (human) (UniProt Q15208)
MAP3K7 (human) = MAP3K7 (human) (UniProt O43318)
[4] = system: ABL1 (human), P00519 [M351T]
[5] = system: PIK3CA (human), P42336 [H1047L]
MAPK12 (human) = MAPK12 (human) (UniProt P53778)
BTK (human) = BTK (human) (UniProt Q06187)
PIK3CA (human) = PIK3CA (human) (UniProt P42336)
Chain of PIK3CA (human) (P42336 whole entry, looked up): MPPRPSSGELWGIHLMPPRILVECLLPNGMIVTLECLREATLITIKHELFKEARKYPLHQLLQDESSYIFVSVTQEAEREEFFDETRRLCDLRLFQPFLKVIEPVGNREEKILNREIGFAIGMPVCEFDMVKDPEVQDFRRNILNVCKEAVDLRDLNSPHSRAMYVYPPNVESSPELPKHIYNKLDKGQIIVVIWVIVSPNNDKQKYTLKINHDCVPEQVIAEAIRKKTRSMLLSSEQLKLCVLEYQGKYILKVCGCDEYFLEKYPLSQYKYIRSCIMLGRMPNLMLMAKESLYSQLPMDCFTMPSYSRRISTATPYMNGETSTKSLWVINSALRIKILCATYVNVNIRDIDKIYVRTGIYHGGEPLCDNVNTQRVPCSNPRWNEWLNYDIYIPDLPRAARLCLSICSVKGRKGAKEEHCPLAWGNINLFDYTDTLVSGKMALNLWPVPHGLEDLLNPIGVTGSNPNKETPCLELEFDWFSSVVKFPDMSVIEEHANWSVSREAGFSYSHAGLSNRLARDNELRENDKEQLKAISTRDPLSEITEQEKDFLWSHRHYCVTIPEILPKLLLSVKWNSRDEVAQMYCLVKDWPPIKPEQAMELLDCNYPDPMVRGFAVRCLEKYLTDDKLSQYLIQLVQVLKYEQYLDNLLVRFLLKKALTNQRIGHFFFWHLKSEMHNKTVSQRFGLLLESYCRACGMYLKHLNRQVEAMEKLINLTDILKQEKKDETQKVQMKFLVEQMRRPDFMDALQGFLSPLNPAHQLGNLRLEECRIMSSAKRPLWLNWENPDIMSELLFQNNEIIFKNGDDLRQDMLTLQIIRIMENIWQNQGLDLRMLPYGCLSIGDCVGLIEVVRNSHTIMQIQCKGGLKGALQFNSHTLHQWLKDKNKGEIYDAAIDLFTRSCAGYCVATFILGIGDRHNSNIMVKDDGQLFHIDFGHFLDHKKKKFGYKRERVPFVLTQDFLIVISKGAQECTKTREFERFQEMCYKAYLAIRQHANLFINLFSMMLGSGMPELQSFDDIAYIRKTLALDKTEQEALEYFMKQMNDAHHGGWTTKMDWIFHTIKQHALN

Chain of STK38 (human) (Q15208 whole entry, looked up): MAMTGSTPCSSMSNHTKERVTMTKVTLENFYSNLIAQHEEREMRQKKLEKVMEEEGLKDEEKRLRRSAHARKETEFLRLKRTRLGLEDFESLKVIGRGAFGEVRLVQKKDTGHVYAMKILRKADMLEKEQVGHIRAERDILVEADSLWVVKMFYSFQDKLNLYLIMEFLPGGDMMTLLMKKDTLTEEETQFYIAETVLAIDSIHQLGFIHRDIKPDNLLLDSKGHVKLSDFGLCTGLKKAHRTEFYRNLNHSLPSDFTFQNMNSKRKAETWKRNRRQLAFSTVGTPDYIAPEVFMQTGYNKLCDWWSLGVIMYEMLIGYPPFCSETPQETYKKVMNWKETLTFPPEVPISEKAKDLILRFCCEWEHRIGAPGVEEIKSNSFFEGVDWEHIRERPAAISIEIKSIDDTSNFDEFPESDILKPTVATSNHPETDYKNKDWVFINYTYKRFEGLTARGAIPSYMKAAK
Chain of MAP3K10 (human) (Q02779 whole entry, looked up): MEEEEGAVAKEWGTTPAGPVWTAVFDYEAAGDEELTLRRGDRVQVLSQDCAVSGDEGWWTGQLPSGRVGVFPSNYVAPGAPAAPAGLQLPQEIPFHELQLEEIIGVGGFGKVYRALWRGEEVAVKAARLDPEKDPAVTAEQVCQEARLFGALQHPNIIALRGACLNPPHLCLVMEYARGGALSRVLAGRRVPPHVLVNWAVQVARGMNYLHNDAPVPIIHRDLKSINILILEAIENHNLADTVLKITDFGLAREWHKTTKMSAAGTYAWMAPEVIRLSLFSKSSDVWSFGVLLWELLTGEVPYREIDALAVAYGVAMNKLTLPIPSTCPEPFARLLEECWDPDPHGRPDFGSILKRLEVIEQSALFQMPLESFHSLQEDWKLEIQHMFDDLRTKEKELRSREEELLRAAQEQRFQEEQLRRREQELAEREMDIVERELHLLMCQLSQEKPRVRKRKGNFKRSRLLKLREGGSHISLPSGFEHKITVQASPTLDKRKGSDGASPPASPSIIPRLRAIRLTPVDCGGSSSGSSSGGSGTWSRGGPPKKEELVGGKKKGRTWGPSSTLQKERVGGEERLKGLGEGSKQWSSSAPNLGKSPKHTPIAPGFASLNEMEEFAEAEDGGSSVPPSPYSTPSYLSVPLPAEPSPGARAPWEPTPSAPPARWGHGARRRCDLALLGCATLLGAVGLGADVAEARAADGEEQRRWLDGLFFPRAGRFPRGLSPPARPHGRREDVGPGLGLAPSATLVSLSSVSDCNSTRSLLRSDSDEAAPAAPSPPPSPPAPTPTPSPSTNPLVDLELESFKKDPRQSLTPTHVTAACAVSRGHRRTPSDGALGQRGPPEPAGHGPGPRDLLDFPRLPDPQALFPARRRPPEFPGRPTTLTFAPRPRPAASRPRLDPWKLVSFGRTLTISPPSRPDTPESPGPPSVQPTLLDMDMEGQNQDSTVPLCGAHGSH
Chain of PRKCE (human) (Q02156 whole entry, looked up): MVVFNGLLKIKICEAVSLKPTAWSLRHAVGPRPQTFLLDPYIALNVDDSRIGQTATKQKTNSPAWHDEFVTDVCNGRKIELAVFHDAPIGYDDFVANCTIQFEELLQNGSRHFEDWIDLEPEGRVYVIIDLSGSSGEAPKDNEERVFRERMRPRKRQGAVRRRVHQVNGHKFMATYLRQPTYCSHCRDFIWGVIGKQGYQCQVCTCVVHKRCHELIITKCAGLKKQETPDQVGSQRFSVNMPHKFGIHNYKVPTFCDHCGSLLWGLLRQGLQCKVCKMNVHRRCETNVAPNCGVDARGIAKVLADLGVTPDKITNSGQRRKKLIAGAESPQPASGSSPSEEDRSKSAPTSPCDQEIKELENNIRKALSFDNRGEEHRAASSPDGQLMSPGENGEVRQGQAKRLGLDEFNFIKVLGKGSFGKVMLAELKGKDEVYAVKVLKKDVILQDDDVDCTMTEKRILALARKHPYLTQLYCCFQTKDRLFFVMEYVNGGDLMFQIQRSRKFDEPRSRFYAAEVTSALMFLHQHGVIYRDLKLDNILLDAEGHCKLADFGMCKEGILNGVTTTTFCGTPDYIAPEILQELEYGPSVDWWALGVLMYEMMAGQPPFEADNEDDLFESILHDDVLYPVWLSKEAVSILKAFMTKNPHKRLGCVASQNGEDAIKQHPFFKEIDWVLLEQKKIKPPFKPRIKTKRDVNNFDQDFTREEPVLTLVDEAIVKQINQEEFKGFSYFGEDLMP
Chain of RPS6KA1 KD1 (human) (Q15418 whole entry, looked up): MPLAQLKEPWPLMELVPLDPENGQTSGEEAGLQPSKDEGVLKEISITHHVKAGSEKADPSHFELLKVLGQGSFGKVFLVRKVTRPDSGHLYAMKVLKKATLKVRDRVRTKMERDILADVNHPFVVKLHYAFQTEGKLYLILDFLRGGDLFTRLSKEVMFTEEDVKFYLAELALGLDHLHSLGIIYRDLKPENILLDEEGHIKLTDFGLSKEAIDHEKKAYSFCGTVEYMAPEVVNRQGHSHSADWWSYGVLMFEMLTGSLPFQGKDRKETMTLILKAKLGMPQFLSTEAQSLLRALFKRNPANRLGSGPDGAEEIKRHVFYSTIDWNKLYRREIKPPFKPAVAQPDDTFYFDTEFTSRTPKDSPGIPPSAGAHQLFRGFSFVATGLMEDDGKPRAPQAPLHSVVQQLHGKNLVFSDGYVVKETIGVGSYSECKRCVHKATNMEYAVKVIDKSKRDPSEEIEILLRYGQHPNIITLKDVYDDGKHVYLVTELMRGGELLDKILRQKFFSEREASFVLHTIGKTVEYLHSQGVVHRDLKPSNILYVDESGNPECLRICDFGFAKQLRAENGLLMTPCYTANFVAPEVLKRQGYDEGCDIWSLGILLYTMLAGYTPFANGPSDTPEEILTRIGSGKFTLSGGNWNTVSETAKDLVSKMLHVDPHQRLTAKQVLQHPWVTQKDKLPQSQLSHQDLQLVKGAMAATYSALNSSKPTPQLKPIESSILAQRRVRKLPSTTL
Chain of PIK3CA (human), P42336 [Q546K] (P42336 whole entry Q546K, looked up): as the sequence (P42336 whole entry, looked up) above, with Q546K counted along it
Chain of PLK1 (human) (P53350 whole entry, looked up): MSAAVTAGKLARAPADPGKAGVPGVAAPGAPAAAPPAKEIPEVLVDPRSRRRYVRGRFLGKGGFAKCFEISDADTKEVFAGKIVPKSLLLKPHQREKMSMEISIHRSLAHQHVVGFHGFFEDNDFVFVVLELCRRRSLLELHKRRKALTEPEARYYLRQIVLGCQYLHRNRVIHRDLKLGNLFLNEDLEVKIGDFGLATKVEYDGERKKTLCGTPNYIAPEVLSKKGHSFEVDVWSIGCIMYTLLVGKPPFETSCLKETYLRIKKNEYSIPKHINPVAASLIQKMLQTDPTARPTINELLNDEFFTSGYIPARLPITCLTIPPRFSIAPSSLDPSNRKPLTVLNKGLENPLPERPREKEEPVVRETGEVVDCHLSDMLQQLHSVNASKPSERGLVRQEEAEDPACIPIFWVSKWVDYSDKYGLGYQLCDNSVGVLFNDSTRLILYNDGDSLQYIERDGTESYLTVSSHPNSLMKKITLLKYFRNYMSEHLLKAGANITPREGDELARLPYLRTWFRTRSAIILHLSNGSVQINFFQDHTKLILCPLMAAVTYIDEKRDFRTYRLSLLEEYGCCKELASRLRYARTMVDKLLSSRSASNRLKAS
Chain of NEK7 (human) (Q8TDX7 whole entry, looked up): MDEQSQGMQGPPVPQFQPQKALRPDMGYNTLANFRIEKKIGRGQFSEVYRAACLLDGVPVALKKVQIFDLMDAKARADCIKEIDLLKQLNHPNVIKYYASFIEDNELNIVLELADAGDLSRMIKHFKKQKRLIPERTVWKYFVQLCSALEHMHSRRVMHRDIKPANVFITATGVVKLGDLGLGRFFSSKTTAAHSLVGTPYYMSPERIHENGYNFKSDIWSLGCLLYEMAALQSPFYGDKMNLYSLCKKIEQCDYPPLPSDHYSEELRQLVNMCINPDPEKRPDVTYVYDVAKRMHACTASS
Chain of PIK3CA (human), P42336 [H1047L] (P42336 whole entry H1047L, looked up): as the sequence (P42336 whole entry, looked up) above, with H1047L counted along it

Cn1cc(C2=C(c3ccc(Cl)cc3Cl)C(=O)NC2=O)c2ccccc21
kinase still bound, per cent of control (PRKCE (human)): 94%
kinase still bound, per cent of control (TAOK3 (human)): 92%
kinase still bound, per cent of control (MARK2 (human)): 78%
kinase still bound, per cent of control (PIK3CG (human)): 93%
kinase still bound, per cent of control (RIOK2 (human)): 95%
kinase still bound, per cent of control (PIP5K1A (human)): 100%
kinase still bound, per cent of control (KIT (human)): 79%
kinase still bound, per cent of control (CaMK1 (human)): 98%
kinase still bound, per cent of control (MYLK (human)): 64%
kinase still bound, per cent of control (MAP3K10 (human)): 100%
kinase still bound, per cent of control (RAF1 (human)): 91%
kinase still bound, per cent of control (HCK (human)): 100%
kinase still bound, per cent of control (RIPK4 (human)): 100%
kinase still bound, per cent of control [1]: 32%
kinase still bound, per cent of control (SRMS (human)): 86%
kinase still bound, per cent of control [2]: 90%
kinase still bound, per cent of control (EPHA3 (human)): 76%
kinase still bound, per cent of control (EPHA4 (human)): 100%
kinase still bound, per cent of control (RPS6KA6 KD2 (human)): 55%
kinase still bound, per cent of control (RIPK2 (human)): 94%
kinase still bound, per cent of control (RIPK1 (human)): 100%
kinase still bound, per cent of control (LATS2 (human)): 100%
kinase still bound, per cent of control (FGFR1 (human)): 100%
kinase still bound, per cent of control (ABL2 (human)): 93%
kinase still bound, per cent of control (CLK1 (human)): 1.6%
kinase still bound, per cent of control (PAK1 (human)): 80%
kinase still bound, per cent of control (PLK1 (human)): 85%
kinase still bound, per cent of control (DDR2 (human)): 84%
kinase still bound, per cent of control (IRAK1 (human)): 100%
kinase still bound, per cent of control (STK11 (human)): 60%
kinase still bound, per cent of control (NEK7 (human)): 89%
kinase still bound, per cent of control [3]: 87%
kinase still bound, per cent of control (MKNK2 (human)): 89%
kinase still bound, per cent of control (RPS6KA1 KD1 (human)): 58%
kinase still bound, per cent of control (RIOK3 (human)): 65%
kinase still bound, per cent of control (STK38 (human)): 100%
kinase still bound, per cent of control (MAP3K7 (human)): 100%
kinase still bound, per cent of control [4]: 82%
kinase still bound, per cent of control [5]: 100%
kinase still bound, per cent of control (MAPK12 (human)): 100%
kinase still bound, per cent of control (BTK (human)): 100%
kinase still bound, per cent of control (PIK3CA (human)): 92%

O=C1Nc2cc(Br)ccc2/C1=C1/Nc2ccccc2/C1=N\O
kinase still bound, per cent of control (PRKCE (human)): 90%
kinase still bound, per cent of control (TAOK3 (human)): 71%
kinase still bound, per cent of control (MARK2 (human)): 19%
kinase still bound, per cent of control (PIK3CG (human)): 82%
kinase still bound, per cent of control (RIOK2 (human)): 18%
kinase still bound, per cent of control (PIP5K1A (human)): 0%
kinase still bound, per cent of control (KIT (human)): 0.05%
kinase still bound, per cent of control (CaMK1 (human)): 28%
kinase still bound, per cent of control (MYLK (human)): 6.5%
kinase still bound, per cent of control (MAP3K10 (human)): 100%
kinase still bound, per cent of control (RAF1 (human)): 90%
kinase still bound, per cent of control (HCK (human)): 1.2%
kinase still bound, per cent of control (RIPK4 (human)): 40%
kinase still bound, per cent of control [1]: 1.8%
kinase still bound, per cent of control (SRMS (human)): 13%
kinase still bound, per cent of control [2]: 100%
kinase still bound, per cent of control (EPHA3 (human)): 1.7%
kinase still bound, per cent of control (EPHA4 (human)): 55%
kinase still bound, per cent of control (RPS6KA6 KD2 (human)): 83%
kinase still bound, per cent of control (RIPK2 (human)): 69%
kinase still bound, per cent of control (RIPK1 (human)): 2.4%
kinase still bound, per cent of control (LATS2 (human)): 60%
kinase still bound, per cent of control (FGFR1 (human)): 18%
kinase still bound, per cent of control (ABL2 (human)): 1.2%
kinase still bound, per cent of control (CLK1 (human)): 34%
kinase still bound, per cent of control (PAK1 (human)): 68%
kinase still bound, per cent of control (PLK1 (human)): 100%
kinase still bound, per cent of control (DDR2 (human)): 23%
kinase still bound, per cent of control (IRAK1 (human)): 39%
kinase still bound, per cent of control (STK11 (human)): 2.7%
kinase still bound, per cent of control (NEK7 (human)): 100%
kinase still bound, per cent of control [3]: 0%
kinase still bound, per cent of control (MKNK2 (human)): 28%
kinase still bound, per cent of control (RPS6KA1 KD1 (human)): 3.1%
kinase still bound, per cent of control (RIOK3 (human)): 8.4%
kinase still bound, per cent of control (STK38 (human)): 86%
kinase still bound, per cent of control (MAP3K7 (human)): 20%
kinase still bound, per cent of control [4]: 2.2%
kinase still bound, per cent of control [5]: 100%
kinase still bound, per cent of control (MAPK12 (human)): 55%
kinase still bound, per cent of control (BTK (human)): 38%
kinase still bound, per cent of control (PIK3CA (human)): 93%

COc1ccc(CNC(=O)Nc2ncc([N+](=O)[O-])s2)cc1
kinase still bound, per cent of control (PRKCE (human)): 100%
kinase still bound, per cent of control (TAOK3 (human)): 54%
kinase still bound, per cent of control (MARK2 (human)): 100%
kinase still bound, per cent of control (PIK3CG (human)): 100%
kinase still bound, per cent of control (RIOK2 (human)): 23%
kinase still bound, per cent of control (PIP5K1A (human)): 70%
kinase still bound, per cent of control (KIT (human)): 100%
kinase still bound, per cent of control (CaMK1 (human)): 100%
kinase still bound, per cent of control (MYLK (human)): 100%
kinase still bound, per cent of control (MAP3K10 (human)): 87%
kinase still bound, per cent of control (RAF1 (human)): 63%
kinase still bound, per cent of control (HCK (human)): 100%
kinase still bound, per cent of control (RIPK4 (human)): 100%
kinase still bound, per cent of control [1]: 99%
kinase still bound, per cent of control (SRMS (human)): 75%
kinase still bound, per cent of control [2]: 90%
kinase still bound, per cent of control (EPHA3 (human)): 100%
kinase still bound, per cent of control (EPHA4 (human)): 100%
kinase still bound, per cent of control (RIPK2 (human)): 95%
kinase still bound, per cent of control (RIPK1 (human)): 100%
kinase still bound, per cent of control (LATS2 (human)): 100%
kinase still bound, per cent of control (FGFR1 (human)): 100%
kinase still bound, per cent of control (ABL2 (human)): 89%
kinase still bound, per cent of control (CLK1 (human)): 62%
kinase still bound, per cent of control (PAK1 (human)): 94%
kinase still bound, per cent of control (PLK1 (human)): 100%
kinase still bound, per cent of control (DDR2 (human)): 71%
kinase still bound, per cent of control (IRAK1 (human)): 100%
kinase still bound, per cent of control (STK11 (human)): 83%
kinase still bound, per cent of control (NEK7 (human)): 100%
kinase still bound, per cent of control [3]: 3.6%
kinase still bound, per cent of control (MKNK2 (human)): 100%
kinase still bound, per cent of control (RPS6KA1 KD1 (human)): 100%
kinase still bound, per cent of control (RIOK3 (human)): 86%
kinase still bound, per cent of control (STK38 (human)): 100%
kinase still bound, per cent of control (MAP3K7 (human)): 88%
kinase still bound, per cent of control [4]: 63%
kinase still bound, per cent of control [5]: 100%
kinase still bound, per cent of control (BTK (human)): 100%
kinase still bound, per cent of control (PIK3CA (human)): 100%
